Measured values: patent publication US20090312423A1, “THERAPEUTIC TREATMENT FOR LUNG CONDITIONS” (Vanderbilt University, priority 2008, published 2009)

Key:
[1] = tested on: exhaled NO; experiment: Exhaled nitric oxide measurement in anesthetized piglets; format: in vivo; details: FIG. 5; p-value 0.032; not different from control (p=0.124)
Experimental: In vivo hemodynamics were measured in 6 of the control piglets and all of the hypoxic piglets. For these measurements, the animals were weighed and then preanesthetized with Ketamine (15 mg/kg) and Acepromazine (2 mg/kg) intramuscularly. A tracheostomy, venous and arterial catheters, and thermistor were then placed as previously described using intravenous pentobarbital for sedation. Fike, C. D. et al., J Appl Physiol (2000) 88:1797-1803. Pulmonary artery pressure, left ventricular end diastolic pressure, and cardiac output were measured. Cardiac output was measured by a thermodilution technique (model 9520 thermodilution cardiac output computer, Edwards Laboratory, Irvine, Calif., United States of America) using a thermistor in the aortic arch and the left ventricle catheter as an injection port. Cardiac output was measured at end expiration as the mean of three injections of 3 ml of normal saline (0° C.). Exhaled NO was measured as described below. […]
For exhaled NO measurement in anesthetized animals, expiratory gas was sampled two to three times for 3 minute periods each and passed through a chemiluminescence analyzer (model 270B NOA; Sievers, Boulder, Colo., United States of America) to measure NO concentration as previously described. […] Exhaled NO production (nmol/min) was calculated using minute ventilation and the measured exhaled NO concentration.

[2] = Plasma amino acid measurements; format: in vivo, piglets; details: for Plasma Citrulline: mean ± SEM
Experimental: On the day of hemodynamic measurements and/or lung perfusion study, for control and both L-citrulline treated and untreated chronic hypoxic animals, blood was drawn prior to starting the study and the plasma frozen at -80 degrees for later determination of amino acid levels. For the L-citrulline treated hypoxic animals, the time of obtaining the blood sample was approximately 12 hours after the last dose of L-citrulline so was a trough level. In some of the L-citrulline treated animals (n=3), after blood sampling for a trough level, a dose of L-citrulline was given via nasogastric tube. Following this dose, blood samples were drawn every 30 minutes for 90 minutes (the length of the in vivo studies). All samples were spun, the plasma collected and frozen at -80 degrees for amino acid analysis. Concentrations of plasma citrulline and arginine were determined by amino-acid analysis on protein-free extracts. Amino acids were separated by cation-exchange chromatography using a Hitachi […] amino acid analyzer (Hitachi USA, San Jose, Calif., United States of America). Calibration of the analyzer was performed before testing of piglet samples.

[3] = tested on: chronically hypoxic piglets; experiment: In vivo hemodynamics in newborn piglets exposed to 10 days of chronic hypoxia
From the text: A total of 17 hypoxic and 17 control piglets were studied. Control animals were studied on the day of arrival from the farm at 12 days of age. The hypoxic pigs (2 days old) were placed in a normobaric hypoxic chamber for 10 to 11 days. Normobaric hypoxia was provided using compressed air and nitrogen to create inspired oxygen of 8-11% (PO2 60-72 Torr) and CO2 was maintained at 3-6 Torr by absorption with soda lime. The animals were monitored with daily weights and physical exam twice daily. They were fed ad lib with sow milk replacer from a feeding device in the cage.
Six of the seventeen hypoxic piglets were supplemented with oral L-citrulline starting on the first day of the hypoxic exposure. L-citrulline supplementation was provided at a dose of 0.13-gm/kilogram body weight twice a day using a syringe to deliver the dose orally. If it appeared to study personnel that the piglet had not ingested the majority of a dose, it was repeated. L-citrulline was mixed using a preparation (Sigma Pharmaceuticals, St. Louis, Mo., United States of America, 98% purity) at a concentration of 0.13 grams per milliliter of distilled water and when completely dissolved passing this solution through a 0.20 Micron filter.
In vivo hemodynamics were measured in 6 of the control piglets and all of the hypoxic piglets. […] Pulmonary artery pressure, left ventricular end diastolic pressure, and cardiac output were measured. Cardiac output was measured by a thermodilution technique (model 9520 thermodilution cardiac output computer, Edwards Laboratory, Irvine, Calif., United States of America) using a thermistor in the aortic arch and the left ventricle catheter as an injection port. Cardiac output was measured at end expiration as the mean of three injections of 3 ml of normal saline (0° C.). Exhaled NO was measured as described below. […]
Pulmonary vascular resistance was calculated from the in vivo hemodynamic measurements: (Pulmonary arterial pressure−left ventricular end diastolic pressure)÷(Cardiac output/body weight). […]

[4] = tested on: nitrite/nitrate (NOx-); experiment: Isolated lung perfusion, perfusate NOx- measurement; format: in vivo, piglets; details: FIG. 6; p=0.04; no difference from normoxic controls
Experimental: The lungs were isolated and perfused in situ with a Krebs Ringer bicarbonate (KRB) solution containing 5% dextran, mol. wt. 70,000, at 37° C. and ventilated with a normoxic gas mixture (21% O2 and 5% CO2) as previously described. Fike, C. D. et al., J Appl Physiol (2000) 88:1797-1803. The lungs were perfused for 30-60 min until a stable pulmonary arterial pressure was achieved. Perfusate samples (1 ml) were then removed from the left atrial cannula every 10 min for a 60-minute period. The perfusate samples were centrifuged, and the supernatant was stored at −80° C. for future analysis of nitrite/nitrate (NOx^−) concentrations as described below. At the end of the perfusion, the volume of perfusate remaining in the circuit and reservoir was measured. […]
The perfusate NOx^− […] was calculated for each collection time by multiplying the perfusate concentration of NOx^− at that sample collection time by the volume of the system (perfusion circuit+reservoir) at the sample collection time plus the amount of NOx^− removed with all previous samples. The rate of NOx^− production was determined from the slope of a linear regression line fit to the amount of NOx^− in the perfusate versus time for the first 60 minutes of the collection period.

SMILES: NC(=O)NCCC[C@H](N)C(=O)O [L-citrulline]
- exhaled NO output vs untreated hypoxic animals [1]: higher
- Plasma Citrulline ([2]; 90 minutes after administration of L-citrulline dose, N = 3): 219 ± 36
- plasma L-citrulline level relative to untreated chronic hypoxic animals ([2]; ninety minutes after a dose, p=0.001): almost twice
- plasma arginine levels vs untreated hypoxic animals ([2]; regardless of the time the sample was drawn): not higher
- Plasma Citrulline ([2]; trough, approximately twelve hours after L-citrulline dose, N = 6): 161 ± 5
- pulmonary artery pressure vs untreated hypoxic animals ([3]; FIG. 3, p-value of 0.01, not different from normoxic controls (p=0.08)): significantly lower
- calculated pulmonary vascular resistance ([3]; FIG. 4, L-citrulline treated hypoxic animals, significantly lower than untreated hypoxic (p-value of 0.001)): 0.071±0.003
- development of pulmonary hypertension ([3]; newborn piglets exposed to 10 days of chronic hypoxia, oral supplementation): ameliorates the development of pulmonary hypertension
- NOx- accumulation rate in lung perfusate vs untreated hypoxic animals [4]: significantly higher
